Source: patent US8329705B2, “Substituted triazolo-pyrazine compounds” (ArQule, Inc., priority 2009, dated 2012)

These compounds were tested against T1, FGFR2 (N549H) (Homo sapiens, UniProt P21802, N549H) (assay: FGFR2 kinase activity assay (fluorescent ELISA)). Conditions: 30 μM compound.
T1 construct: purchased Millipore 14-742
Type: biochemical
Experimental: A fluorescent ELISA assay was developed to identify and characterize inhibitors of FGFR2 kinase. This heterogeneous assay utilized a biotinylated peptide with a tyrosine motif as a substrate and an anti-phospho-tyrosine antibody to measure phosphorylation of the substrate. The reaction was initiated by adding a test compound, 37 uM Pyk2 substrate (Midwest Biotech, cat. #MBT2383), 12.5 uM ATP (Roche, cat. #11 140 965 001), and 0.5 uM FGFR2 enzyme (Millipore, cat. #14-742) sequentially to a non-binding polypropylene V-well plate. All reagents were in assay buffer consisting of: 50 mM Tris-HCL, 0.02 mg/mL BSA, 10 mM MgCl2, 0.1 mM Na3VO4, 1 mM EGTA, […], 0.01% NP-40, 2 mM DTT, 10% Glycerol. The reaction was incubated for 60 minutes. As the reaction proceeded, FGFR2 phosphorylated tyrosines in the peptide. The reaction mixture was then moved to a blocked streptavidin coated Nunc Maxisorb plate (coated with 100 ng streptavidin from Pierce (cat #15-124) per well) allowing for the capture of the biotinylated peptide. Peptide was captured for 30 minutes at room temperature, the phosphorylation of peptide continues during this phase. The reaction was stopped by washing the Streptavidin plate 6 times with TBST. Phosphorylated peptide was detected by adding anti-phospho tyrosine antibody (purchased from Cell Signaling, cat. #9411, diluted 1:3000), unbound antibody was removed by washing 6 times with TBST. Secondary detection was performed using Alkaline Phosphatase tagged goat anti-mouse antibody (purchased from Pierce, cat. #31320, diluted 1:4000) for one hour. Unbound secondary antibody was removed by washing 6 times with TBST.
The fluorescent readout was initiated by the addition of Promega Attophos substrate (purchased from Promega; Kit catalog number: S1000, dilution=6 mg/10 mL), which when dephosphorylated by Alkaline phosphatase emitted a fluorescent signal of […] when excited by a signal […]. This reading was done on the Perkin Elmer Envision system. […] The signal was directly proportional to the activity of FGFR2 and compound inhibition of FGFR2 was monitored by a decrease in signal.

T1 sequence (P21802 22-821 N549H): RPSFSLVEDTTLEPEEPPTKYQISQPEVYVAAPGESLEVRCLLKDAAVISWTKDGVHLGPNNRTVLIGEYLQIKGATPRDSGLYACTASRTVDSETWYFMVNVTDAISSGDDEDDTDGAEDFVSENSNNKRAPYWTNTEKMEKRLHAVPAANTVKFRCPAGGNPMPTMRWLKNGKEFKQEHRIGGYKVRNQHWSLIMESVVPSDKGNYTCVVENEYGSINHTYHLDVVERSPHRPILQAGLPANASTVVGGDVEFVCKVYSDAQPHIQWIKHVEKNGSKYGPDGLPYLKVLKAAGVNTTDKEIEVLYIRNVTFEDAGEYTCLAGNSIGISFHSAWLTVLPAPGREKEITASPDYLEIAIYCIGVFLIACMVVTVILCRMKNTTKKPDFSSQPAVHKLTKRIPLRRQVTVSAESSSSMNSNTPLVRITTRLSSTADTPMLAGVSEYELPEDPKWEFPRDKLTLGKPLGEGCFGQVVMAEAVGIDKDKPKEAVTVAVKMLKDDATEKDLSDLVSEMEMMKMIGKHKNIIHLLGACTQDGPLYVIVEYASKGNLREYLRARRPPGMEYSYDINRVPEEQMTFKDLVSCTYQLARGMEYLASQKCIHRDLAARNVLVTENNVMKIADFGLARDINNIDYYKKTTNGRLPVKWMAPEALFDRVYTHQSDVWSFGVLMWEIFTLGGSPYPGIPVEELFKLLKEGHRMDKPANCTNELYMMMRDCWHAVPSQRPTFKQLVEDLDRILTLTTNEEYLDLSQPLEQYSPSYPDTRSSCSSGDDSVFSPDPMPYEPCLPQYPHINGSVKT

inhibition at 30 µM | Compound
96.5% | COc1cc(CCNc2nccn3c(NC(=O)OC(C)C)nnc23)cc(OC)c1 [Compound 31, isopropyl (8-{[2-(3,5-dimethoxyphenyl)ethyl]amino}[1,2,4]triazolo[4,3-a]pyrazin-3-yl)carbamate]
96.3% | CCc1ccc(CNc2nccn3c(N)nnc23)cc1 [Compound 139, N^8-(4-ethylbenzyl)[1,2,4]triazolo[4,3-a]pyrazine-3,8-diamine]
68.8% | CC(C)OC(=O)Nc1nnc2c(NCc3ccc(C(F)(F)F)cc3)nccn12 [Compound 17, isopropyl (8-{[4-(trifluoromethyl)benzyl]amino}[1,2,4]triazolo[4,3-a]pyrazin-3-yl)carbamate]
59.2% | Nc1nnc2c(NCc3ccccc3Br)nccn12 [Compound 92, N^8-(2-bromobenzyl)[1,2,4]triazolo[4,3-a]pyrazine-3,8-diamine]
68.7% | CC(C)OC(=O)Nc1nnc2c(Nc3ccc4c(c3)CCC4)nccn12 [Compound 34, isopropyl [8-(2,3-dihydro-1H-inden-5-ylamino)[1,2,4]triazolo[4,3-a]pyrazin-3-yl]carbamate]
109% | COc1ccc(N(C)c2nccn3c(N)nnc23)cc1 [Compound 152, N^8-(4-methoxyphenyl)-N^8-methyl[1,2,4]triazolo[4,3-a]pyrazine-3,8-diamine]
52.9% | Nc1nnc2c(NCc3ccc(Br)cc3)nccn12 [Compound 140, N^8-(4-bromobenzyl)[1,2,4]triazolo[4,3-a]pyrazine-3,8-diamine]
65.7% | Cc1cccc(CNc2nccn3c(N)nnc23)c1C [Compound 131, N^8-(2,3-dimethylbenzyl)[1,2,4]triazolo[4,3-a]pyrazine-3,8-diamine]
50.9% | COc1ccc(C)cc1Nc1nccn2c(NC(=O)OC(C)C)nnc12 [Compound 23, isopropyl {8-[(2-methoxy-5-methylphenyl)amino][1,2,4]triazolo[4,3-a]pyrazin-3-yl}carbamate]
60.7% | Nc1nnc2c(Nc3cccc(F)c3)nccn12 [Compound 99, N^8-(3-fluorophenyl)[1,2,4]triazolo[4,3-a]pyrazine-3,8-diamine]
82.8% | COc1ccc(Cl)c(Nc2nccn3c(N)nnc23)c1 [Compound 154, N^8-(2-chloro-5-methoxyphenyl)[1,2,4]triazolo[4,3-a]pyrazine-3,8-diamine]
63.6% | CC(C)OC(=O)Nc1nnc2c(Nc3ccc(C(C)(C)C)cc3)nccn12 [Compound 50, isopropyl {8-[(4-tert-butylphenyl)amino][1,2,4]triazolo[4,3-a]pyrazin-3-yl}carbamate]
58.4% | CC(C)OC(=O)Nc1nnc2c(NCc3cc(C(F)(F)F)cc(C(F)(F)F)c3)nccn12 [Compound 66, isopropyl (8-{[3,5-bis(trifluoromethyl)benzyl]amino}[1,2,4]triazolo[4,3-a]pyrazin-3-yl)carbamate]
66.5% | Nc1nnc2c(NCc3ccc(C(F)(F)F)cc3)nccn12 [Compound 100, N^8-[4-(trifluoromethyl)benzyl][1,2,4]triazolo[4,3-a]pyrazine-3,8-diamine]
64.7% | CC(C)OC(=O)Nc1nnc2c(Nc3nc4ccccc4[nH]3)nccn12 [Compound 56, isopropyl [8-(1H-benzimidazol-2-ylamino)[1,2,4]triazolo[4,3-a]pyrazin-3-yl]carbamate]
57.7% | CC(C)OC(=O)Nc1nnc2c(N(C)c3ccc(Cl)cc3)nccn12 [Compound 87, isopropyl {8-[(4-chlorophenyl)(methyl)amino][1,2,4]triazolo[4,3-a]pyrazin-3-yl}carbamate]
56.3% | CC(C)OC(=O)Nc1nnc2c(N(C)Cc3ccccc3)nccn12 [Compound 30, isopropyl {8-[benzyl(methyl)amino][1,2,4]triazolo[4,3-a]pyrazin-3-yl}carbamate]
82% | Cc1ccccc1Nc1nccn2c(NC(=O)OC(C)C)nnc12 [Compound 14, isopropyl {8-[(2-methylphenyl)amino][1,2,4]triazolo[4,3-a]pyrazin-3-yl}carbamate]
119% | CC(C)OC(=O)Nc1nnc2c(Nc3cccc(Cl)c3)nccn12 [Compound 67, isopropyl {8-[(3-chlorophenyl)amino][1,2,4]triazolo[4,3-a]pyrazin-3-yl}carbamate]

inhibition at 30 µM | Compound
84.6% | COc1ccc(OC)c(Nc2nccn3c(NC(=O)OC(C)C)nnc23)c1 [Compound 46, isopropyl {8-[(2,5-dimethoxyphenyl)amino][1,2,4]triazolo[4,3-a]pyrazin-3-yl}carbamate]
59.9% | Nc1nnc2c(Nc3cccc(Br)c3)nccn12 [Compound 142, N^8-(3-bromophenyl)[1,2,4]triazolo[4,3-a]pyrazine-3,8-diamine]
73.5% | COc1ccc(C)cc1Nc1nccn2c(N)nnc12 [Compound 124, N^8-(2-methoxy-5-methylphenyl)[1,2,4]triazolo[4,3-a]pyrazine-3,8-diamine]
87% | CC(C)OC(=O)Nc1nnc2c(NCc3ccccc3C(F)(F)F)nccn12 [Compound 48, isopropyl (8-{[2-(trifluoromethyl)benzyl]amino}[1,2,4]triazolo[4,3-a]pyrazin-3-yl)carbamate]
86.1% | Cc1ccc(N(C)c2nccn3c(N)nnc23)cc1 [Compound 107, N^8-methyl-N^8-(4-methylphenyl)[1,2,4]triazolo[4,3-a]pyrazine-3,8-diamine]
65.3% | CC(C)OC(=O)Nc1nnc2c(NCc3cccc(Cl)c3)nccn12 [Compound 24, isopropyl {8-[(3-chlorobenzyl)amino][1,2,4]triazolo[4,3-a]pyrazin-3-yl}carbamate]
100% | CC(C)OC(=O)Nc1nnc2c(NCc3ccc(-c4ccccc4)cc3)nccn12 [Compound 61, isopropyl {8-[(biphenyl-4-ylmethyl)amino][1,2,4]triazolo[4,3-a]pyrazin-3-yl}carbamate]
84% | CC(C)OC(=O)Nc1nnc2c(NCc3ccccc3F)nccn12 [Compound 84, isopropyl {8-[(2-fluorobenzyl)amino][1,2,4]triazolo[4,3-a]pyrazin-3-yl}carbamate]
52.8% | Cc1ccc(N(C)c2nccn3c(NC(=O)OC(C)C)nnc23)cc1 [Compound 69, isopropyl {8-[methyl(4-methylphenyl)amino][1,2,4]triazolo[4,3-a]pyrazin-3-yl}carbamate]
57% | COc1ccc(Nc2nccn3c(NC(=O)OC(C)C)nnc23)c(OC)c1 [Compound 35, isopropyl {8-[(2,4-dimethoxyphenyl)amino][1,2,4]triazolo[4,3-a]pyrazin-3-yl}carbamate]
51.6% | CC(C)OC(=O)Nc1nnc2c(NCCc3ccc(F)cc3)nccn12 [Compound 28, isopropyl (8-{[2-(4-fluorophenyl)ethyl]amino}[1,2,4]triazolo[4,3-a]pyrazin-3-yl)carbamate]
50.4% | Cc1cccc(Nc2nccn3c(N)nnc23)c1 [Compound 118, N^8-(3-methylphenyl)[1,2,4]triazolo[4,3-a]pyrazine-3,8-diamine]
58.7% | Cc1cccc(CCNc2nccn3c(NC(=O)OC(C)C)nnc23)c1 [Compound 42, isopropyl (8-{[2-(3-methylphenyl)ethyl]amino}[1,2,4]triazolo[4,3-a]pyrazin-3-yl)carbamate]
50.6% | Cc1cccc2c(CCNc3nccn4c(NC(=O)OC(C)C)nnc34)c[nH]c12 [Compound 85, isopropyl (8-{[2-(7-methyl-1H-indol-3-yl)ethyl]amino}[1,2,4]triazolo[4,3-a]pyrazin-3-yl)carbamate]
50.5% | CC(C)OC(=O)Nc1nnc2c(Nc3ccccc3Cl)nccn12 [Compound 13, isopropyl {8-[(2-chlorophenyl)amino][1,2,4]triazolo[4,3-a]pyrazin-3-yl}carbamate]
57.4% | CN(c1cccc(Cl)c1)c1nccn2c(N)nnc12 [Compound 155, N^8-(3-chlorophenyl)-N^8-methyl[1,2,4]triazolo[4,3-a]pyrazine-3,8-diamine]
51% | CC(C)OC(=O)Nc1nnc2c(NCc3ccccc3Br)nccn12 [Compound 80, isopropyl {8-[(2-bromobenzyl)amino][1,2,4]triazolo[4,3-a]pyrazin-3-yl}carbamate]
62.5% | COc1ccccc1N(C)c1nccn2c(NC(=O)OC(C)C)nnc12 [Compound 41, isopropyl {8-[(2-methoxyphenyl)(methyl)amino][1,2,4]triazolo[4,3-a]pyrazin-3-yl}carbamate]
55.2% | Cc1cccc(CNc2nccn3c(NC(=O)OC(C)C)nnc23)c1 [Compound 19, isopropyl {8-[(3-methylbenzyl)amino][1,2,4]triazolo[4,3-a]pyrazin-3-yl}carbamate]
